Data taken from US20100087523A1, “Rupestonic acid derivatives and use thereof” (priority 2008, published 2010).

How the values were obtained:
[1] = tested on: A-type flu virus (jifang/90-15)
[2] = tested on: B-type flu virus (jifang/97-13)

SMILES | Activity for inhibiting A-type flu viruses SI (selection index, SI = TC50/IC50) [1] | Activity for inhibiting B-type flu viruses SI (selection index, SI = TC50/IC50) [2]
C=C(C(=O)Nc1ccc(Cl)cc1)C1CCC(C)C2CC(=O)C(C)=C2C1 (stereo not shown) [A-2, N(4-chloro-phenyl)-Rupestonic amide] | 6.3 | 4.0
C=C(C(=O)Nc1ccccc1Br)C1CCC(C)C2CC(=O)C(C)=C2C1 (stereo not shown) [A-5, N(2-bromo-phenyl)-Rupestonic amide] | 3.3 | –
C=C(C(=O)OCC)C1CCC(C)C2CC(=O)C(C)=C2C1 (stereo not shown) [B-1, Ethyl Rupestonic ester] | 4.9 | 3.8
C=C(C(=O)Oc1ccc(Cl)cc1)C1CCC(C)C2CC(=O)C(C)=C2C1 (stereo not shown) [B-2, Rupestonic (p-chlorophenyl)-ester] | 12.6 | –
C=C(C(=O)Oc1ccccc1Cl)C1CCC(C)C2CC(=O)C(C)=C2C1 (stereo not shown) [B-3, Rupestonic (o-chlorophenyl)-ester] | 4.3 | –
C=C(C(=O)Oc1ccc(Br)cc1)C1CCC(C)C2CC(=O)C(C)=C2C1 (stereo not shown) [B-4, Rupestonic (p-bromophenyl)-ester] | 4.3 | –
C=C(C(=O)Oc1ccc(C)cc1)C1CCC(C)C2CC(=O)C(C)=C2C1 (stereo not shown) [B-9, Rupestonic (p-methylphenyl)-ester] | 14.3 | –
C=C(C(=O)OCc1ccc(Cl)cc1)C1CCC(C)C2CC(=O)C(C)=C2C1 (stereo not shown) [B-14, Rupestonic (p-chlorobenzyl)-ester] | 3.8 | 2.5
C=C(C(=O)OCc1ccc([N+](=O)[O-])cc1)C1CCC(C)C2CC(=O)C(C)=C2C1 (stereo not shown) [B-15, Rupestonic (p-nitryl-benzyl)-ester] | 4.6 | 4.6
C=C(C(=O)OCc1ccccc1Br)C1CCC(C)C2CC(=O)C(C)=C2C1 (stereo not shown) [B-17, Rupestonic (o-bromobenzyl)-ester] | 3.9 | 2.2
C=C(C(=O)O)[C@H]1CC[C@H](C)[C@@H]2CC(=O)C(C)=C2C1 [Compound 1, rupestonic acid] | – | 9.00
CCOC(=O)C1=C[C@@H](OC(CC)CC)[C@H](NC(C)=O)[C@@H](N)C1 [Oseltamivir] | >239.1 | –
NC(=O)c1ncn([C@@H]2O[C@H](CO)[C@@H](O)[C@H]2O)n1 [Ribavirin] | 982.8 | 132.1
